For assay [1], the system named is HepG2 cells. Briefly: Sulforhodamine B protein staining (SRB) assay in HepG2. It counts as cell-based, human. The conditions noted are these: Homo sapiens. The procedure:
(§1) Sulfor hod am ine B p rotei n st ai ning (SRB) assay
(§2) Cell pr oliferat ion was eva lua ted by sul for hod amine B pr ot ein st aini ng (SRB) assa y10-12.
(§3) Briefly, cel ls were se ede d int o 96-well pl ates, cul tur ed overni ght , and trea ted with correspond ing com poun ds for 72 h. Cells were the n fixe d with 10% trichl or oa cetic aci d and st ained with sul for hoda mine B (Sigm a). Sul for hoda mine B in the cells was di sso lved in 10 mmol/L Tris-HCl and was measured at 515 nm usi ng a multiw ell spect ropho tometer (VERSA max, Mol ecul ar Devi ces, Sunnyva le, CA). The inhi bi tion rat e on cell pr olif eratio n was cal culated for each well as (A515contr ol cells-A 515tr eated cells)/A515contr ol cells×100 % (A515:
(§4) OD va lue at 515 nm ). The averag e IC50 va lue s were de termine d by Logit method from at leas t t hr eei nde pe nde nt test s.
A general note: Sulforhodamine B stains cellular protein and so reports cell mass.

In assay [2] the target is NAMPT (Homo sapiens, UniProt P43490). Briefly: NAMPT activity assay by fluorescence of NMN derivative (HTS system), IC50 determination. In kind it is biochemical. Details: His-tag; made in house; host or cells: E. coli BL21-CodonPlus (DE3)-RIL. To be noted: for IC50: recombinant human NAMPT, read-out: NAMPT IC50.
NAMPT, sequence (P43490 whole entry): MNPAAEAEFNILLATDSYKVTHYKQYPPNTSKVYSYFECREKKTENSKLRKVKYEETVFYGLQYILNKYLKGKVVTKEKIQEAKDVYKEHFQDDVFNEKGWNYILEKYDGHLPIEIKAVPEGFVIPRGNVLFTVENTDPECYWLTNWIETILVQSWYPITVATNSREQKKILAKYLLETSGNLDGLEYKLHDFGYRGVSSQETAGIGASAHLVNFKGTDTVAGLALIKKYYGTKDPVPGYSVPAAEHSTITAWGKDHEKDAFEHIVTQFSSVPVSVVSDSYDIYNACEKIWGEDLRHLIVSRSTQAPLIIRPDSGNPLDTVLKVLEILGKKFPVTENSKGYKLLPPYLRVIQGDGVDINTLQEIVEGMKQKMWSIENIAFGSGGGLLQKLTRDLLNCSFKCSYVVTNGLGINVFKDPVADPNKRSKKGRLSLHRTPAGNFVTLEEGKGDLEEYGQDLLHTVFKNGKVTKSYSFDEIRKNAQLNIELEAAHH
Assay [3] relates to A549 cells. As to the kind of experiment: SRB assay in A549. It counts as cell-based, human. The conditions noted are these: Homo sapiens; A549, SRB, 10-fold concentration gradient; read-out: anti-proliferation IC50, initial screen. The procedure: as §1, §2, §3, §4
Assay [4] has as its system HCT116 cells. As to the kind of experiment: SRB assay in HCT116. It counts as cell-based. To be noted: Homo sapiens, HCT-116; HCT116, SRB, 10-fold concentration gradient; read-out: anti-proliferation IC50, initial screen. On the procedure:
as §1, §2, §3, §4

The mark [5] stands for this setting: HepG2, 72 h, HepG2, second test, 2-fold concentration gradient, 72 hours, read-out: SRB assay in HepG2: IC50.
[6] abbreviates: HepG2, HepG2, SRB, 10-fold concentration gradient, read-out: anti-proliferation IC50, initial screen.

Where two headings read alike, the source gives them in different places. Where only a bound is given, the exact number is not on record here.

Consider `O=C(/C=C/c1cccnc1)NCCCCC1CCN(C(=O)c2ccccc2)CC1` [FK866, reference compound], for which, in assay [1] (setting [5]), the IC50 was 50 nM.
For `O=S(=O)(c1ccc(NC(=S)NCc2cccnc2)cc1)N1CCNCC1` [MS2], the IC50 in assay [2] (mean ± s.e.) came to 0.0845 ± 0.0075 µM.
Turning to `O=S(=O)(Nc1ccccc1)c1ccc(NC(=S)NCc2cccnc2)cc1` [MS3], the IC50 in assay [2] (mean ± s.e.) is 0.022 ± 0.0046 µM.
For the compound `CN1CCN(S(=O)(=O)c2ccc(NC(=S)NCc3cccnc3)cc2)CC1` [MS4], the IC50 in assay [2] (mean ± s.e.) is 0.0964 ± 0.0123 µM.
For `CC(=O)N1CCN(S(=O)(=O)c2ccc(NC(=S)NCc3cccnc3)cc2)CC1` [MS5, 1-(4-((4-acetylpiperazin-1-yl)sulfonyl)phenyl)-3-(pyridin-3-ylmethyl)thiourea], the IC50 in assay [2] (mean ± s.e.) is 0.0405 ± 0.0018 µM.
As to `O=S(=O)(c1ccc(NC(=S)NCc2cccnc2)cc1)N1CCN(c2ccccn2)CC1` [MS6, 1-(4-((4-(pyridin-2-yl)piperazin-1-yl)sulfonyl)phenyl)-3-(pyridin-3-ylmethyl)thiourea], the IC50 in assay [2] (mean ± s.e.) worked out at 0.0177 ± 0.0034 µM.
For `O=S(=O)(c1ccc(NC(=S)NCc2cccnc2)cc1)N1CCN(C2CCCCC2)CC1` [MS8, 1-(4-((4-cyclohexylpiperazin-1-yl)sulfonyl)phenyl)-3-(pyridin-3-ylmethyl)thiourea], in assay [2] (mean ± s.e.), the IC50 was 0.0142 ± 0.0024 µM.
As for `O=S(=O)(c1ccc(NC(=S)NCc2cccnc2)cc1)N1CCCC1` [MS9, 1-(pyridin-3-ylmethyl)-3-(4-(pyrrolidin-1-ylsulfonyl)phenyl)thiourea], in assay [2] (mean ± s.e.), the IC50 is 0.0439 ± 0.0024 µM.
On to `O=S(=O)(NCc1ccccc1)c1ccc(NC(=S)NCc2cccnc2)cc1` [MS10], for which the IC50 in assay [2] (mean ± s.e.) is 0.0196 ± 0.0002 µM.
Consider `O=S(=O)(c1ccc(NC(=S)NCc2cccnc2)cc1)N1CCOCC1` [MS11], for which the IC50 in assay [2] (mean ± s.e.) is 0.0217 ± 0.0008 µM.
In the case of `CCOC(=O)N=C(NCc1cccnc1)Nc1ccc(S(=O)(=O)N2CCCCC2)cc1` [MS12], in assay [2] (values given in μM), the IC50 is more than 166 µM.
As for `O=C(c1ccc(NC(=S)NCc2cccnc2)cc1)N1CCCCC1` [MS15], the IC50 in assay [2] (mean ± s.e.) stood at 0.0422 ± 0.0031 µM.
`O=C(Nc1ccc(S(=O)(=O)N2CCCCC2)cc1)OCc1cccnc1` [MS17]: the IC50 in assay [2] (mean ± s.e.) is 0.0428 ± 0.004 µM.
`N=C(NCc1cccnc1)Nc1ccc(S(=O)(=O)N2CCCCC2)cc1` [MS18]: in assay [2] (mean ± s.e.), the IC50 stood at 0.765 ± 0.0748 µM.
As for `N=C(NCc1cccnc1)Nc1ccc(C(=O)N2CCCCC2)cc1` [MS19], the IC50 in assay [2] (mean ± s.e.) turned out to be 14.5 ± 0.203 µM; in assay [2] (values given in μM), 14.5 ± 0.2 µM.
Take `CCOC(=S)Nc1ccc(C(=O)N2CCCCC2)cc1` [MS20]: the “inhibition on NAMPT activity (in words)” value in assay [2] is given as “no NAMPT inhibition”. The IC50 in assay [2] (values given in μM) is more than 150 µM.
Turning to `N#CN=C(NCc1cccnc1)Nc1ccc(S(=O)(=O)N2CCCC2)cc1` [MS21], the IC50 in assay [2] (mean ± s.e.) is 0.577 ± 0.0387 µM.
Same read-out and setting: next, `O=S(=O)(c1ccc(NC(=S)NCc2cccnc2)cc1)N1CCN(Cc2ccc(F)cc2)CC1` [MS22]: 0.012 ± 0.0015 µM.
Turning to `O=S(=O)(c1ccc(NC(=S)NCc2cccnc2)cc1)N1CCN(Cc2c(F)cccc2F)CC1` [MS23], the IC50 in assay [3] is less than 5000 nM; in assay [4], less than 5000 nM; in assay [2] (mean ± s.e.) it was 0.0099 ± 0.0012 µM; in assay [1] (setting [5]), more than 10000 nM; in assay [1] (setting [6]), less than 5000 nM.
As to `O=S(=O)(c1ccc(NC(=S)NCc2cccnc2)cc1)N1CCN(Cc2cccc(F)c2)CC1` [MS24], in assay [2] (mean ± s.e.), the IC50 was determined as 0.0089 ± 0.0005 µM.
As for `O=S(=O)(c1ccc(NC(=S)NCc2cccnc2)cc1)N1CCN(Cc2ccccc2F)CC1` [MS25], the IC50 in assay [2] (mean ± s.e.) is 0.0123 ± 0.002 µM.
On to `Cc1ccc(CN2CCN(S(=O)(=O)c3ccc(NC(=S)NCc4cccnc4)cc3)CC2)cc1` [MS26], for which, in assay [2] (mean ± s.e.), the IC50 worked out at 0.0105 ± 0.002 µM.
As to `Cc1ccccc1CN1CCN(S(=O)(=O)c2ccc(NC(=S)NCc3cccnc3)cc2)CC1` [MS27], the IC50 in assay [2] (mean ± s.e.) was determined as 0.0124 ± 0.0009 µM.
In the case of `Cc1cccc(CN2CCN(S(=O)(=O)c3ccc(NC(=S)NCc4cccnc4)cc3)CC2)c1` [MS28], the IC50 in assay [3] is less than 5000 nM; in assay [4], less than 5000 nM; in assay [2] (mean ± s.e.), 0.0168 ± 0.0015 µM; in assay [1] (setting [5]), more than 10000 nM; in assay [1] (setting [6]), less than 5000 nM.
In the case of `O=S(=O)(c1ccc(NC(=S)NCc2cccnc2)cc1)N1CCN(Cc2cccc(Cl)c2)CC1` [MS29], the IC50 in assay [2] (mean ± s.e.) is 0.0126 ± 0.0017 µM.
Consider `O=S(=O)(c1ccc(NC(=S)NCc2cccnc2)cc1)N1CCN(Cc2ccccc2Cl)CC1` [MS30], for which, in assay [2] (mean ± s.e.), the IC50 was 0.0157 ± 0.0025 µM.
Consider `O=S(=O)(c1ccc(NC(=S)NCc2cccnc2)cc1)N1CCN(Cc2ccc(Cl)cc2)CC1` [MS31], for which the IC50 in assay [3] was less than 5000 nM; in assay [4], less than 5000 nM; in assay [2] (mean ± s.e.), 0.0137 ± 0.0016 µM; in assay [1] (setting [5]), 5810 ± 710 nM; in assay [1] (setting [6]), less than 5000 nM.
As to `O=S(=O)(c1ccc(NC(=S)NCc2cccnc2)cc1)N1CCN(Cc2ccc(Br)cc2)CC1` [MS32], the IC50 in assay [3] was less than 5000 nM; in assay [4], less than 5000 nM; in assay [2] (mean ± s.e.) it was 0.0242 ± 0.0016 µM; in assay [1] (setting [5]), 4860 ± 150 nM; in assay [1] (setting [6]), less than 5000 nM.
Consider `O=S(=O)(c1ccc(NC(=S)NCc2cccnc2)cc1)N1CCN(Cc2ccc3ccccc3c2)CC1` [MS33], for which the IC50 in assay [3] was less than 5000 nM; in assay [4], less than 5000 nM; in assay [2] (mean ± s.e.), 0.0295 ± 0.0008 µM; in assay [1] (setting [5]), 8940 ± 450 nM; in assay [1] (setting [6]) it was less than 5000 nM.
For `O=S(=O)(c1ccc(NC(=S)NCc2cccnc2)cc1)N1CCN(Cc2ccc(OC(F)(F)F)cc2)CC1` [MS35], the IC50 in assay [3] is less than 5000 nM; in assay [4], less than 5000 nM; in assay [2] (mean ± s.e.), 0.0369 ± 0.0046 µM; in assay [1] (setting [5]), 4830 ± 130 nM; in assay [1] (setting [6]), less than 5000 nM.
As for `CCCCc1ccc(CN2CCN(S(=O)(=O)c3ccc(NC(=S)NCc4cccnc4)cc3)CC2)cc1` [MS36], the IC50 in assay [2] (mean ± s.e.) was determined as 0.0798 ± 0.0061 µM.
`O=[N+]([O-])c1ccc(CN2CCN(S(=O)(=O)c3ccc(NC(=S)NCc4cccnc4)cc3)CC2)cc1` [MS37]: the IC50 in assay [3] was less than 5000 nM; in assay [4], less than 5000 nM; in assay [2] (mean ± s.e.), 0.0197 ± 0.0021 µM; in assay [1] (setting [5]) it was 4650 ± 1030 nM; in assay [1] (setting [6]), less than 5000 nM.
As to `Nc1ccc(CN2CCN(S(=O)(=O)c3ccc(NC(=S)NCc4cccnc4)cc3)CC2)cc1` [MS38], the IC50 in assay [2] (mean ± s.e.) came out at 0.0199 ± 0.0028 µM.
For the compound `O=S(=O)(c1ccc(NC(=S)NCc2cccnc2)cc1)N1CCN(Cc2nc3ccccc3[nH]2)CC1` [MS39], in assay [2] (mean ± s.e.), the IC50 was found to be 0.014 ± 0.0003 µM.
Take `O=S(=O)(c1ccc(NC(=S)NCc2cccnc2)cc1)N1CCN(Cc2ccoc2)CC1` [MS40]: the IC50 in assay [2] (mean ± s.e.) stood at 0.0487 ± 0.0045 µM.
For `O=S(=O)(c1ccc(NC(=S)NCc2cccnc2)cc1)N1CCN(Cc2ccsc2)CC1` [MS41], the IC50 in assay [2] (mean ± s.e.) was 0.0225 ± 0.0008 µM.
Regarding `O=S(=O)(c1ccc(NC(=S)NCc2cccnc2)cc1)N1CCN(Cc2ccco2)CC1` [MS42], the IC50 in assay [2] (mean ± s.e.) is 0.0191 ± 0.002 µM.
For `O=S(=O)(c1ccc(NC(=S)NCc2cccnc2)cc1)N1CCN(Cc2cccs2)CC1` [MS43], the IC50 in assay [2] (mean ± s.e.) was determined as 0.0388 ± 0.0018 µM.
For the compound `O=S(=O)(c1ccc(NC(=S)NCc2cccnc2)cc1)N1CCN(Cc2ccncc2)CC1` [MS44], the IC50 in assay [2] (mean ± s.e.) was determined as 0.0137 ± 0.0004 µM.
As for `O=S(=O)(c1ccc(NC(=S)NCc2cccnc2)cc1)N1CCN(Cc2cccnc2)CC1` [MS45], the IC50 in assay [2] (mean ± s.e.) is 0.0098 ± 0.0009 µM.
Turning to `Cc1ccc(N2CCN(S(=O)(=O)c3ccc(NC(=S)NCc4cccnc4)cc3)CC2)cc1` [MS46], the IC50 in assay [2] (mean ± s.e.) was found to be 0.0154 ± 0.0016 µM.
For the compound `COc1ccc(CCNC(=O)c2cc3ccccc3s2)cc1OC` [compound 2161], in assay [2] (mean ± s.e.), the IC50 amounted to 0.149 ± 0.021 µM.
Take `O=C1C[C@H](c2ccc(O)cc2)Oc2c1c(O)cc(O)c2[C@@H]1C(=O)c2c(O)cc(O)cc2O[C@H]1c1ccc(O)cc1` [compound 3909]: the IC50 in assay [2] (mean ± s.e.) was determined as 0.504 ± 0.124 µM.
For the compound `O=C(NCc1ccc(S(=O)(=O)NCc2cc(F)cc3c2OCOC3)s1)c1ccc(Cl)cc1` [compound 4162], the IC50 in assay [2] (mean ± s.e.) came out at 0.777 ± 0.084 µM.
On the same count and under the same terms, the value for `COc1cccc(/C=C2/N=C(c3ccc(NC(=O)c4cccs4)cc3)OC2=O)c1OC` [compound 6443] was 0.352 ± 0.045 µM.
Take `Cc1ccc2oc(=O)n(CCC(N)=NOC(=O)c3ccccc3)c2c1` [compound 7391]: the IC50 in assay [2] (mean ± s.e.) was determined as 0.855 ± 0.17 µM.

The record behind these values is article PMC4603696, “Discovery and characterization of novel small-molecule inhibitors targeting nicotinamide phosphoribosyltransferase” (Scientific Reports, 2015).
